# Measured values published in patent publication EP0403251A2, “Monokine activity interference” (SMITHKLINE BEECHAM CORPORATION, priority 1989, dated 1990).
# “Also recorded” adds a separate entry of the source. Like-named read-outs stand apart in the source and are kept apart here.
# Tests used:
# TNF [1] = experiment: In vivo endotoxin shock models (P. acnes model and/or LPS-GAL model, not specified which); design: species or system mice; conditions: for in vivo TNF levels / protection from endotoxic induced shock: one or both of the in vivo assays (P. acnes / LPS-GAL)
# Description: Two models of endotoxin shock have been utilized to determine in vivo TNF activity and are described below. The actual protocoll used in the models is described in Utility Model Examples A and B set out below, i.e. P. Acnes model and LPS-GAL model.
# (§1) Briefly, D-gal ([…]) sensitizes various strains of mice to the lethal effects of endotoxin. The administration of D-gal (300-500mg/kg) intra-venously (i.v.) sensitizes the mice to doses of Lipopolysaccharide(LPS ) as low as 0.1 mg. Briefly, male C57BL/6 mice, obtained from Charles River Laboratories (Stone Ridge, New York, USA) of 6-12 weeks of age were injected i.v. with 0.1 mg of LPS from Salmonella typhosa (Difco Laboratories, Detroit, Michigan, USA) admixed with D(+)-gal (Sigma; 500 mg/kg) in 0.20-0.25 ml pyrogen-free saline. Compounds to be tested were administered at various times prior to or following the iv. injection of LPS/D-gal.
# (§2) This model is a modification of the previously described protocol for the in vivo induction of TNF as described in Haranaka et al., Cancer Immunol Immunother, 18:87-90, (1984). Treatment with Proprionibacterium Acnes (P. acnes) (1mg/animal i.p.) renders mice susceptible to the lethal effects of LPS injected 10 days later.
# (§3) P. acnes was purchased from Burroughs Wellcome (Triangle Park, North Carolina, USA), and […]of the heat-killed bacteria was administered in 0.5 ml pyrogen-free saline by intraperitoneal (i.p.) injection to male C57BL/6 mice, obtained from Charles River Laboratories (Stone Ridge, New York, USA) of 6-12 weeks of age. Ten days later, the mice were injected iv. with 1 mg LPS in 0.25 ml saline. Compounds to be tested were administered at various times prior to or following the injection of LPS. The survival of animals was monitored for 1 week.
# (§4) Plasma levels of TNF were measured using a modification of the basic sandwich ELISA method described in Winston et al., Current Protocols in Molecular Biology, Pg. 11.2.1, Ausubel et al., Ed. (1987) John Wiley and Sons, New York, USA. The Elisa employed a hampster monoclonal anti-mouse TNF (Genzyme, Boston, MA, USA) as the capture antibody and a polyclonal rabbit anti-murine TNF (Genzyme, Boston, MA, USA) as the detecting antibody. TNF levels in rat samples were calculated from a standard curve genereated with recombinant murine TNF (Genzyme, Boston, MA, USA).
# [2] = system: IL-1 production by bacterial lipopolysaccharide (LPS)-stimulated human monocytes; conditions: cited from earlier work
# 5-lipoxygenase = target: T1, 5-lipoxygenase (Homo sapiens, UniProt P09917); conditions: Lee et al. 1988; cited from earlier work
# T1 sequence (P09917 1-674): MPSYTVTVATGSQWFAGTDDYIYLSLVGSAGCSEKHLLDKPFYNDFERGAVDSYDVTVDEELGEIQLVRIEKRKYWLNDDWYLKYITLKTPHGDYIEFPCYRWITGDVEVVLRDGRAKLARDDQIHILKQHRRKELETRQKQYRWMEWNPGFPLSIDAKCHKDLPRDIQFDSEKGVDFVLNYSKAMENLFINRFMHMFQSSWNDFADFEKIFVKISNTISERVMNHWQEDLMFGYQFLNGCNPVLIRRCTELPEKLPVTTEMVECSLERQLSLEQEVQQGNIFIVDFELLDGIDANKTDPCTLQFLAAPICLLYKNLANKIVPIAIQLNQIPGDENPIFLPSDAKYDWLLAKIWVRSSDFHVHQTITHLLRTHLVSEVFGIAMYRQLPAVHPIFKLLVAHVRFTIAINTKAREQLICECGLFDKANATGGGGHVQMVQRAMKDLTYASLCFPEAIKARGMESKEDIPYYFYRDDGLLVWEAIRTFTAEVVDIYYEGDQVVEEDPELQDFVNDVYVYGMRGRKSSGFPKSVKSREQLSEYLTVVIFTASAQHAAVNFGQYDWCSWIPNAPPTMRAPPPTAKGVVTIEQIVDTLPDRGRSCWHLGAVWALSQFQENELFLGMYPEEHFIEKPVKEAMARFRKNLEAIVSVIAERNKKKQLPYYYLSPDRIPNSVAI
# TNFa = conditions: Badger et al. 1989, cited from earlier work
# TNF [3] = experiment: Endotoxin shock in D-gal-sensitized mice (LPS-GAL model), TNF levels by ELISA and survival; type: in vivo; conditions: for reduction of serum TNF levels: LPS-GAL Model, 100 mg/kg, Figure 4; for survival rate: LPS-GAL model, animals with endotoxic shock, Figure 5, control group 30%
# Description: as §1, with “The protocol used to test the compound of the method of the subject invention was essentially as has been described in Galanos et al., Proc. Nat'l Acad. Sci USA, 76:5939-43 (1979) whose disclosure is herein incorporated by reference. Briefly, D-gal” for “Briefly, D-gal”, “of LPS/D-gal. In this model, the control animals usually die 5-6 hr. following the injection of LPS, although on occasion deaths are seen between 24 and 48 hr.” for “of LPS/D-gal.”
# as §4, with “USA). TNF levels determined by ELISA correlated with levels detected by the L929 bioassay of Ruff et. al., J. Immunol. 125:1671-1677 (1980), with 1 Unit of activity in the bioassay corresponding to 70 picograms (pg) of TNF in the ELISA. The ELISA detected levels of TNF down to 25 pg/ml.” for “USA).”
# [4] = system: TNFa production by monocytes; conditions: Lee et al. 1988 and Badger et al. 1989; cited from earlier work
# cyclooxygenase = conditions: Lee et al. 1988; cited from earlier work
# [5] = system: TNF Production by Human Monocytes; experiment: Inhibitory effect on in vitro LPS induced TNF production by human monocytes (ELISA); type: cell-based; conditions: Monocyte; LPS (50 ng/ml) induced TNF, human peripheral blood monocytes, compound added 1 hr before LPS, 24 hours; NA - not active; read-out: IC₅₀
# Description: The effects of the compounds enumerated above on the in vitro production of TNF by human monocytes was examined using the following protocol..
# Bacterial lipopolysaccharide (LPS) was used to induce TNF production by human peripheral blood monocytes. TNF activity was measured by a modification of Winston et al., ELISA, described below. Human peripheral blood monocytes were isolated and purified from either fresh blood preparations from volunteer donors, from blood bank buffy coats, or from plateletpheresis residues according to the procedure of Colotta et al., J. Immunol., 132, 936 (1984). 1 X 10⁶ of such monocytes were plated in 24-well plates at a concentration of 1-2 million/ml per well. The cells were allowed to adhere for 2 hours, after which time non-adherent cells were removed by gentle washing. Test compounds were then added to the cells for 1 hour (hr) before the addition of LPS (50 ng/ml), and the cultures were incubated at 37 °C for an additional 24 hours. At the end of the incubation period, culture supernatants were removed and clarified of cells and all debris. Culture supernatants were immediately assayed for TNF levels in the manner described below.
# Levels of TNF were mesured using a modification of the basic sandwich ELISA assay method described in Winston et al., Current Protocols in Molecular Biology. Page 11.2.1, Ausubel et al., Ed. (1987) John Wiley and Sons, New York, USA The Elisa employes a murine monoclonal anti-human TNF antibody, described below, as the capture antibody and a polyclonal rabbit anti-human TNF , described below, as the second antibody. For detection, a peroxidase-conjgated goat anti-rabbit antibody (Boehringer Mannheim, Indianopolis, Indiana, USA, Catalog #605222) was added followed by a substrate for peroxidase (1mg/ml orthophenylenediamine with 0.1% urea peroxide). TNF levels in samples were calculated from a standard curve genereated with recombinant human TNF produced in E. Coli (obtained from SmithKline Beecham Pharmaceuticals, King of Prussisa, PA, USA).
# Monoclonal antibodies to human TNF were prepared from spleens of BALB/c mice immunized with recombinant human TNF using a modification of the method of Kohler and Millstein, Nature 256: 495(1975), the entire disclosure of which is hereby incorporated by reference. Polyclonal rabbit anti-human TNF antibodies were prepared by repeated immunization of New Zeland White (NZW) rabbits with recombinant human TNF emulsified in complete Freund's adjuvant (DIFCO, IL., USA).
# TNF [6] = experiment: Endotoxin shock in P. acnes-sensitized mice (P. acnes/LPS model), TNF levels by ELISA; type: in vivo; conditions: P acnes/LPS treated mice, increased oral dosage, Figure 1
# Description: as §2, §3
# Plasma levels of TNF were measured using a modification of the basic sandwich ELISA method described in Winston et al., Current Protocols in Molecular Biology, Pg. 11.2.1, Ausubel et al., Ed. (1987) John Wiley and Sons, New York, USA. […] TNF levels in rat samples were calculated from a standard curve genereated with recombinant murine TNF (Genzyme, Boston, MA, USA). TNF levels determined by ELISA correlated with levels detected by the L929 bioassay of Ruff et. al., J. Immunol. […] The ELISA detected levels of TNF down to 25 pg/ml.
compound,measurement,setting,value
"O=S1(=O)CCn2c1nc(-c1ccc(F)cc1)c2-c1ccncc1 [6-(4-Fluorophenyl)-5-(4-pyridyl)-2,3-dihydroimidazo[2,1-b]thiazole-1,1-dioxide]",in vivo TNF levels,TNF [1],inhibited in vivo TNF levels
same,protection from endotoxic induced shock,TNF [1],protected the animals from endotoxic induced shock
"Fc1ccc(-c2nc3n(c2-c2ccncc2)CCS3)cc1 [Compound 1, 6-(4-Flurophenyl)-5-(4′pyridyl)-2,3-dihydroimidazo[2,1-b]-thiazole]",IL-1 production,"[2]; Lee et al. 1988, listed as 5-(4-pyridyl)-6(4-fluorophenyl)-2,3-dihydroimidazo(2,1-B)-thiazole",inhibit
same,IL-1 production,"[2]; Lee et al. 1988, listed as 5-(4-pyridyl)-6(4-fluorophenyl)-2,3-dihydroimidazo(2,1-B)thiazole",potent inhibitor
same,5-lipoxygenase-mediated arachidonate metabolism,5-lipoxygenase,inhibits
same,circulating levels of TNFa,TNFa; mouse models of LPS-induced shock,inhibition of circulating levels of TNFa
same,protection against LPS-induced shock,TNFa; two mouse models,protection
same,protection from the lethal effects of endotoxin shock,TNF [1]; P. Acnes model and LPS-GAL model,protection from the lethal effects of endotoxin shock
same,in vivo TNF levels,TNF [1],reduce the in vivo level of tumor necrosis factor (TNF)
same,reduction of serum TNF levels,TNF [3],reduction of serum TNF levels
same,survival rate,TNF [3],100%
same,TNF production,"TNF [3]; LPS-Gal mouse model, i.p. injection, Figure 3",inhibitis TNF production
same,TNFa production by monocytes,[4],inhibit
same,cyclooxygenase-mediated arachidonate metabolism,cyclooxygenase,inhibits
"CC(=O)OCSc1ccc(-c2nc3n(c2-c2ccncc2)CCC3)cc1 [Compound 9, 2-(4-Acetoxymethylthiophenyl)3-(4-pyridyl)-6,7-dihydro[5H]pyrrolo-[1,2-a]-imidazole]",IC50,[5],3000 nM
"COc1ccc(-c2nc3n(c2-c2ccncc2)CCC3O)cc1 (stereo not drawn) [Compound 8, 5,6-dihydro-2-(4-methoxyphenyl)-3-(4-pyridinyl)-[7H]-pyrrolo[1,2-a]-imidazole-7-ol]",IC50,[5],1000 nM
"O=S1(=O)CCn2c1nc(-c1ccc(F)cc1)c2-c1ccncc1 [Compound 14, 6-(4-Fluorophenyl)-5-(4-pyridyl)-2,3-dihydroimidazo[2,1-b]thiazole-1,1-dioxide]",IC50,[5],9000 nM
"COc1ccc(-c2nc3n(c2-c2ccncc2)CCC3)cc1 [Compound 10, 2-(4-Methoxyphenyl)-3-(4-pyridyl)-6,7-dihydro-[5H]-pyrrolo-[1,2-a]imidazole]",IC50,[5],500 nM
"CSc1ccc(-c2nc3n(c2-c2ccncc2)CCC3)cc1 [Compound 3, 2-(4-methylthiophenyl)-3-(4-pyridyl)-6,7-dihydro-[5H]-pyrrolo[1,2-a]-imidazole]",IC50,[5],1000 nM
"CC[S+]([O-])c1ccc(-c2nc3n(c2-c2ccncc2)CCC3)cc1 (stereo not drawn) [Compound 15, 2-(4-Ethylsulfinylphenyl)-3-(4-pyridyl)-6,7-dihydro[5H]pyrrolo[1,2-a]imidazole]",in vivo TNF levels,TNF [1],inhibited in vivo TNF levels
same,protection from endotoxic induced shock,TNF [1],protected the animals from endotoxic induced shock
same,IC50,[5],7000 nM
"CSc1ccc(-c2nc3n(c2-c2ccnc(C)c2)CCC3)cc1 [Compound 16, 2-(4-Methylthiophenyl)-3-[4-(2-methylpyridyl)]-6,7-dihydro[5H]pyrrolo-[1,2-a]imidazole]",in vivo TNF levels,TNF [1],inhibited in vivo TNF levels
"C[S+]([O-])c1ccc(-c2nc3n(c2-c2ccncc2)CCC3)cc1 (stereo not drawn) [Compound 2, 2-(4-Methylsulfoxyphenyl)3-(4-pyridyl)-6,7-dihydro[5H]-pyrrolo-[1,2-a]imidazole]",serum TNF levels,TNF [6],reduction in serum TNF levels
same,in vivo TNF levels,TNF [1],in vivo activity; also recorded: reduce the in vivo level of tumor necrosis factor (TNF)
same,reduction of serum TNF levels,TNF [3],reduction of serum TNF levels
same,survival rate,TNF [3],100%
